In ChEMBL document CHEMBL1201862, “PubChem BioAssay data set” (2004):
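Results reflect a 48-hour exposure of cells in 96-well plates to compound at five concentrations. Here, GI50 denotes the concentration required for 50% inhibition of growth.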 The source made the active and inactive calls. Cut-off read from the data, not from the text of the source: active = GI50 up to about 1.1 µM and inactive = higher.

Experiments:
Experiment in all cases: NCI-60 cell line screen, 48 h
KM12 = test system: KM12
Malme-3M = test system: Malme-3M
MDA-MB-435 = test system: MDA-MB-435
A498 = test system: A498
IGROV-1 = test system: IGROV-1
OVCAR-5 = test system: OVCAR-5
EKVX = test system: EKVX
U-251 = test system: U-251
RPMI-8226 = test system: RPMI-8226
COLO 205 = test system: COLO 205
UACC-62 = test system: UACC-62
A549 = test system: A549
Hs-578T = test system: Hs-578T
SK-MEL-28 = test system: SK-MEL-28
MDA-N = test system: MDA-N
OVCAR-8 = test system: OVCAR-8
UO-31 = test system: UO-31
SK-MEL-5 = test system: SK-MEL-5
HCC 2998 = test system: HCC 2998
SR = test system: SR
HCT-15 = test system: HCT-15
HOP-92 = test system: HOP-92
SNB-19 = test system: SNB-19
786-0 = test system: 786-0
HCT-116 = test system: HCT-116
SK-MEL-2 = test system: SK-MEL-2
NCI-H23 = test system: NCI-H23
LOX IMVI = test system: LOX IMVI
K562 = test system: K562
OVCAR-4 = test system: OVCAR-4
MDA-MB-231 = test system: MDA-MB-231
T47D = test system: T47D
BT-549 = test system: BT-549
SW-620 = test system: SW-620
DU-145 = test system: DU-145
SN12C = test system: SN12C
CAKI-1 = test system: CAKI-1
HT-29 = test system: HT-29
MCF7 = test system: MCF7
UACC-257 = test system: UACC-257
HOP-62 = test system: HOP-62
SF-539 = test system: SF-539
SNB-75 = test system: SNB-75
NCI/ADR-RES = test system: NCI/ADR-RES
PC-3 = test system: PC-3
ACHN = test system: ACHN
SK-OV-3 = test system: SK-OV-3
TK-10 = test system: TK-10
NCI-H522 = test system: NCI-H522
M14 = test system: M14
CCRF-CEM = test system: CCRF-CEM
HL-60 = test system: HL-60
NCI-H226 = test system: NCI-H226
MOLT-4 = test system: MOLT-4
OVCAR-3 = test system: OVCAR-3
SF-268 = test system: SF-268
NCI-H460 = test system: NCI-H460
SF-295 = test system: SF-295
RXF 393 = test system: RXF 393
DMS-273 = test system: DMS-273

CC1CCC2N(C1)CC1C3(O)CC45OC6(O)C(O)CCC4(C)C6CCC5C3(O)CC(O)C1(O)C2(C)O (centres undefined) was tested, and the GI50 (KM12) was > 100 µM (inactive), the GI50 (Malme-3M) was > 100 µM (inactive) and the GI50 (MDA-MB-435) was > 100 µM (inactive). For the same compound, the GI50 (A498) was > 77.6 µM (inactive), the GI50 (IGROV-1) was > 100 µM (inactive) and the GI50 (OVCAR-5) was > 100 µM (inactive). The GI50 (EKVX) was > 100 µM (inactive), the GI50 (U-251) was > 100 µM (inactive) and the GI50 (RPMI-8226) was > 100 µM (inactive). For the same compound, the GI50 (COLO 205) was > 100 µM (inactive), the GI50 (UACC-62) was > 100 µM (inactive) and the GI50 (A549) was > 100 µM (inactive). The GI50 (Hs-578T) was > 100 µM (inactive), the GI50 (SK-MEL-28) was > 100 µM (inactive) and the GI50 (MDA-N) was > 100 µM (inactive). For the same compound, the GI50 (OVCAR-8) was > 100 µM (inactive), the GI50 (UO-31) was > 100 µM (inactive) and the GI50 (SK-MEL-5) was > 100 µM (inactive). For the same compound, the GI50 (HCC 2998) was > 100 µM (inactive), the GI50 (SR) was > 100 µM (inactive) and the GI50 (HCT-15) was > 100 µM. For the same compound, the GI50 (HOP-92) was > 100 µM (inactive), the GI50 (SNB-19) was > 100 µM (inactive) and the GI50 (786-0) was > 100 µM (inactive). The GI50 (HCT-116) was > 100 µM (inactive), the GI50 (SK-MEL-2) was > 100 µM (inactive) and the GI50 (NCI-H23) was > 100 µM (inactive). The GI50 (LOX IMVI) was > 100 µM (inactive), the GI50 (K562) was > 100 µM (inactive) and the GI50 (OVCAR-4) was > 100 µM (inactive). For the same compound, the GI50 (MDA-MB-231) was > 100 µM (inactive), the GI50 (T47D) was > 100 µM (inactive) and the GI50 (BT-549) was > 100 µM (inactive). For the same compound, the GI50 (SW-620) was > 100 µM (inactive), the GI50 (DU-145) was > 100 µM (inactive) and the GI50 (SN12C) was > 100 µM (inactive). The GI50 (CAKI-1) was > 100 µM (inactive), the GI50 (HT-29) was > 100 µM (inactive) and the GI50 (MCF7) was > 100 µM (inactive). For the same compound, the GI50 (UACC-257) was > 100 µM (inactive), the GI50 (HOP-62) was > 100 µM (inactive) and the GI50 (SF-539) was > 100 µM (inactive). For the same compound, the GI50 (SNB-75) was > 100 µM (inactive), the GI50 (NCI/ADR-RES) was > 100 µM (inactive) and the GI50 (PC-3) was > 100 µM (inactive). The GI50 (ACHN) was > 100 µM (inactive), the GI50 (SK-OV-3) was > 100 µM (inactive) and the GI50 (TK-10) was > 100 µM (inactive). For the same compound, the GI50 (NCI-H522) was > 100 µM (inactive), the GI50 (M14) was > 100 µM (inactive) and the GI50 (CCRF-CEM) was > 100 µM (inactive). The GI50 (HL-60) was > 100 µM (inactive), the GI50 (NCI-H226) was > 100 µM (inactive) and the GI50 (MOLT-4) was > 100 µM (inactive). For the same compound, the GI50 (OVCAR-3) was > 100 µM (inactive), the GI50 (SF-268) was > 100 µM (inactive) and the GI50 (NCI-H460) was > 100 µM (inactive). The GI50 (SF-295) was > 100 µM (inactive) and the GI50 (RXF 393) was > 100 µM (inactive).

With COc1ccc(N[C@@H]2c3cc4c(cc3C(c3cc(OC)c(O)c(OC)c3)[C@H]3C(=O)OCC32)OCO4)cc1OC (some centres undefined) the GI50 (DMS-273) was > 100 µM (inactive), the GI50 (A498) was > 100 µM (inactive) and the GI50 (OVCAR-5) was > 19.9 µM (inactive). For the same compound, the GI50 (EKVX) was > 32.7 µM (inactive), the GI50 (SK-MEL-28) was > 19.9 µM (inactive) and the GI50 (HCT-15) was > 100 µM. The GI50 (HOP-92) was > 100 µM (inactive), the GI50 (NCI-H23) was 0.297 µM (active) and the GI50 (LOX IMVI) was > 100 µM (inactive). For the same compound, the GI50 (OVCAR-4) was 20.3 µM (inactive), the GI50 (UACC-257) was 4.21 µM (inactive) and the GI50 (NCI/ADR-RES) was > 19.9 µM (inactive).

In the case of FC(F)(F)c1ccc(C2ON=C(c3ccccc3)N2C23CC4CC(CC(C4)C2)C3)cc1 (centres undefined), the GI50 (KM12) is reported as > 10 µM (inactive), the GI50 (Malme-3M) is reported as > 10 µM (inactive) and the GI50 (MDA-MB-435) is reported as > 10 µM (inactive). For the same compound, the GI50 (A498) was > 10 µM (inactive), the GI50 (IGROV-1) was > 10 µM (inactive) and the GI50 (OVCAR-5) was > 10 µM (inactive). For the same compound, the GI50 (EKVX) was > 10 µM (inactive), the GI50 (U-251) was > 10 µM (inactive) and the GI50 (RPMI-8226) was > 10 µM (inactive). The GI50 (COLO 205) was > 10 µM (inactive), the GI50 (UACC-62) was > 10 µM (inactive) and the GI50 (A549) was > 10 µM (inactive). The GI50 (Hs-578T) was > 10 µM (inactive), the GI50 (SK-MEL-28) was > 10 µM (inactive) and the GI50 (MDA-N) was > 10 µM (inactive). The GI50 (OVCAR-8) was > 10 µM (inactive), the GI50 (SK-MEL-5) was > 10 µM (inactive) and the GI50 (HCC 2998) was > 10 µM (inactive). For the same compound, the GI50 (SR) was > 10 µM (inactive), the GI50 (HCT-15) was > 10 µM and the GI50 (HOP-92) was > 10 µM (inactive). The GI50 (SNB-19) was > 10 µM (inactive), the GI50 (786-0) was > 10 µM (inactive) and the GI50 (HCT-116) was > 10 µM (inactive). For the same compound, the GI50 (SK-MEL-2) was > 10 µM (inactive), the GI50 (NCI-H23) was > 10 µM (inactive) and the GI50 (LOX IMVI) was > 10 µM (inactive). For the same compound, the GI50 (K562) was > 10 µM (inactive), the GI50 (OVCAR-4) was > 10 µM (inactive) and the GI50 (MDA-MB-231) was > 10 µM (inactive). The GI50 (T47D) was > 10 µM (inactive), the GI50 (BT-549) was > 10 µM (inactive) and the GI50 (SW-620) was > 10 µM (inactive). The GI50 (DU-145) was > 10 µM (inactive), the GI50 (SN12C) was > 10 µM (inactive) and the GI50 (CAKI-1) was > 10 µM (inactive). For the same compound, the GI50 (HT-29) was > 10 µM (inactive), the GI50 (MCF7) was 1.39 µM (inactive) and the GI50 (UACC-257) was > 10 µM (inactive). For the same compound, the GI50 (HOP-62) was > 10 µM (inactive), the GI50 (SF-539) was > 10 µM (inactive) and the GI50 (SNB-75) was > 10 µM (inactive). The GI50 (NCI/ADR-RES) was > 10 µM (inactive), the GI50 (PC-3) was > 10 µM (inactive) and the GI50 (ACHN) was > 10 µM (inactive). The GI50 (SK-OV-3) was > 10 µM (inactive), the GI50 (TK-10) was > 10 µM (inactive) and the GI50 (NCI-H522) was > 10 µM (inactive). For the same compound, the GI50 (M14) was > 10 µM (inactive), the GI50 (CCRF-CEM) was > 10 µM (inactive) and the GI50 (HL-60) was > 10 µM (inactive). For the same compound, the GI50 (NCI-H226) was > 10 µM (inactive), the GI50 (MOLT-4) was > 10 µM (inactive) and the GI50 (OVCAR-3) was > 10 µM (inactive). The GI50 (SF-268) was > 10 µM (inactive), the GI50 (NCI-H460) was > 10 µM (inactive) and the GI50 (SF-295) was > 10 µM (inactive). The GI50 (RXF 393) was > 10 µM (inactive).
